Measured values published in patent US20040102454A1, “Phenylahistin and the phenylahistin analogs, a new class of anti-tumor compounds” (priority 1998, published 2004).
Entries after “also recorded” stand apart in the source; their conditions may differ. Like-named read-outs stand apart in the source and are kept apart here.

Assays:
P388 cells = experiment: P388 proliferation, Alamar Blue assay; type: cell-based, murine; settings: for IC50: Mus musculus
[1] = tested on: A549 cells (human lung carcinoma); experiment: A549 proliferation, Alamar Blue assay; type: cell-based
Protocol: Exponentially growing A549 cells were seeded into 96-well tissue culture plates (2×10^3 cells/100 μl/well) and cultured for 16 hours. (−)-PLH or CLC was then added to each well at various concentrations, and the cells were cultured for an additional 48 hours. Live cells were counted using Alamar Blue™ from BioSource International (Camarillo, Calif.) as described in Ahmed, S. A., J. Immunol. Methods, (1994), 170, 211-24.

[2] = tested on: microtubules in A549 cells; experiment: Immunofluorescence staining of microtubules; type: cell-based, human; settings: 6 hours incubation
Protocol: Immunocytochemical staining was performed using the method described by Yahara, I. et al., Cell (1978) 15, 251-259. A549 cells were cultured on glass coverslips and incubated with the test drug for 6 hours. The cells were then fixed with 3.7% formaldehyde for 30 min, permeabilized with 0.2% Triton X-100 for 5 min, and incubated with a mouse monoclonal antibody against α-tubulin (Calbiochem®, Oncogene Research Products, Cambridge, Mass.), followed by incubation with fluorescein isothiocyanate-conjugated goat anti-mouse IgG from Cosmo Bio Co., (Tokyo, Japan), and the cells were examined under an immunofluorescent microscope.

bovine brain tubulin [3] = experiment: [^3H]CLC binding to tubulin and competition assay; settings: Dixon plot, assuming competitive inhibition; 0.5 μM [^3H]CLC; read-out: estimated Ki value for CLC binding
Protocol: [^3H]CLC binding to tubulin was evaluated by the ultrafiltration method of Takahashi, M., et al., Biochim. Biophys. […] The concentration of unbound [^3H]CLC in the filtrates was determined using a EcoLite™(+) liquid scintillator from ICN Pharmaceuticals Inc. (Costa Mesa, Calif.). Specific bound [^3H]CLC concentrations were determined by adding an excess (×100) of unlabeled CLC to the reaction mixture.
For the competition assay, bovine brain tubulin (0.2 mg/ml) was incubated in the microtubule assembly buffer with 0.5 μM [^3H]CLC and various concentrations of competitors for 20 min at 37° C. [^3H]CLC binding was measured as described above.

bovine brain tubulin [4] = experiment: [^3H]VLB binding competition assay; settings: DEAE-cellulose filter method; listed as (−)-PLH
A-431 (damal) = experiment: Antiproliferative activity, MTT assay (Table 7); type: cell-based; settings: Homo sapiens, optical purity over 99.8%
Protocol: (§1) In order to examine detailed biological activity, especially antitumor activity of both (+)- and (−)-phenylahistin, resolution of (+)- and (−)-phenylahistin using chiral HPLC was conducted. By repeating chiral separation twice or three times, each enantiomer with an optical purity over 99.8% was obtained, and each enantiomer was recrystallizes from ethanol-hexane mixture.
(§2) Antitumor activity of (+)- and (−)-phenylahistin was examined against seven human cancer cell lines including A431, WiDr, TE-671, Hela, MCF7, A-549 and K562 cells.

A549 (lung) = experiment: Antiproliferative activity, MTT assay (Table 7); type: cell-based; settings: Homo sapiens, optical purity over 99.8%
Protocol: as §1, §2

Hela (ovary) = experiment: Antiproliferative activity, MTT assay (Table 7); type: cell-based; settings: Homo sapiens, optical purity over 99.8%
Protocol: as §1, §2

K562 (leukemia) = experiment: Antiproliferative activity, MTT assay (Table 7); type: cell-based; settings: Homo sapiens, optical purity over 99.8%
Protocol: as §1, §2

MCF7 (breast) = experiment: Antiproliferative activity, MTT assay (Table 7); type: cell-based; settings: Homo sapiens, optical purity over 99.8%
Protocol: as §1, §2

WiDr (colon) = experiment: Antiproliferative activity, MTT assay (Table 7); type: cell-based; settings: Homo sapiens, optical purity over 99.8%
Protocol: as §1, §2

A. fumigatus isolate #1 = experiment: Antifungal susceptibility testing, broth dilution (NCCLS M38-A); type: cell-based; settings: Aspergillus fumigatus, 80% reduction in turbidity
Protocol: (§3) Antifungal susceptibility testing was accomplished according to the methods outlined in the National Committee for Clinical Laboratory Standards, M38-A “Reference Method for Broth Dilution Antifungal Susceptibility Testing of Conidium-Forming Filamentous Fungi; Approved Standard.” This includes testing in RPMI-1640 with glutamine and without bicarbonate, an inoculum size of 0.4-5×10^4, and incubation at 30 or 35° C. for 48 hours. […] Drug concentrations were 0.03-16 μg/ml for the investigational compounds, 0.015-8 μg/ml for itraconazole and griseofulvin.
(§4) The minimum lethal concentration (MLC) was determined by plating […] from the MIC concentration and each concentration above the MIC. […] When a MIC was obtained, a minimum fungicidal concentration (MFC) was determined to assess the fungistatic/fungicidal nature of the compound. […] The compound is scored as fungistatic if the cells are able to resume growth and fungicidal if no regrowth is possible because the compound had killed the organisms.

A. fumigatus isolate #2 = experiment: as above; type: cell-based; settings: Aspergillus fumigatus, 80% reduction in turbidity
Protocol: as §3, §4

[5] = Solubility of phenylahistin in solvents; type: physicochemical
Cell strain A431 = experiment: Cell cycle inhibiting activity, flow cytometer and microscopic observation; type: cell-based, human
Protocol: Cell strain A431 derived from […] was used. EMEM culture medium containing 10% bovine fetus serum and 1% MEM nonessential amino acid solution (SIGMA M2025) was used to incubate A431 cells at 37° C. in an incubator saturated with 5% carbon dioxide gas and water vapor. The refined specimen of racemic phenylahistin obtained in EXAMPLE 1 was added to the cells in the log-growth phase and progression of the cell cycle was analyzed by flow cytometer and microscopic observation. The results, shown in Table 1, indicate that this phenylahistin was useful as a cell cycle inhibitor.

In the case of `C=CC(C)(C)c1[nH]cnc1/C=C1\NC(=O)[C@H](Cc2ccccc2)NC1=O` [(−)-phenylahistin], the “times more active than (+)-phenylahistin in anti-proliferative assays” value (P388 cells) is reported as 50 times, the IC50 (P388 cells; P388, read-out: IC50 P388 proliferation) is reported as 0.21 µM and the IC50 (P388 cells; P388, read-out: IC50 for P388 Proliferation) is reported as 0.21 µM. For the same compound, the “times less active than colchicine, anti-proliferative activity” value (P388 cells; P388) was “about 10 times”, the IC50 ([1]; Homo sapiens, A549, read-out: 50% inhibitory concentration (IC50), proliferation of A549 cells, 48 hours) was 0.3 µM and the “fold less potent than CLC, A549 proliferation” value ([1]; versus CLC under the assay conditions) was 5 fold. The “microtubule structure (anti α-tubulin staining)” value [2] was “disappearance of the microtubule network”, the Ki (bovine brain tubulin [3]) was 7.4 µM and the “effect on [^3H]VLB binding to tubulin” value (bovine brain tubulin [4]) was “not inhibited; also recorded: slightly enhanced”. It also gave an IC50 (A-431 (damal)) of 0.22 µM, an IC50 (A549 (lung)) of 0.3 µM and an IC50 (Hela (ovary)) of 0.2 µM. The IC50 (K562 (leukemia)) was 0.19 µM, the IC50 (MCF7 (breast)) was 0.33 µM and the IC50 (WiDr (colon)) was 0.18 µM. It also gave an MIC (A. fumigatus isolate #1) greater than 16 mg/L and an MIC (A. fumigatus isolate #2) greater than 16 mg/L.

With `C=CC(C)(C)c1[nH]cnc1/C=C1\NC(=O)[C@H](Cc2ccccc2)NC1=O` (racemic) [PLH, phenylahistin] the solubility ([5]; in ethyl acetate, chloroform, methanol, and pyridine) was “soluble”, the solubility ([5]; in water, benzene, and toluene) was “only slightly soluble” and the “Inhibiting effect (cell cycle)” value (Cell strain A431; Concentration 0.5 μg/ml) was “Absent (Absent: The cell cycle stopped at the G2/M phase in less than 10% of the cells.)”. The “Inhibiting effect (cell cycle)” value (Cell strain A431; Concentration 1.0 μg/ml) was “Absent (Absent: The cell cycle stopped at the G2/M phase in less than 10% of the cells.)”, the “Inhibiting effect (cell cycle)” value (Cell strain A431; Concentration 2.0 μg/ml) was “Slight (Slight: The cell cycle stopped at the G2/M phase in not less than 10% and less than 50% of the cells.)” and the “Inhibiting effect (cell cycle)” value (Cell strain A431; Concentration 4.0 μg/ml) was “Slight (Slight: The cell cycle stopped at the G2/M phase in not less than 10% and less than 50% of the cells.)”. For the same compound, the “Inhibiting effect (cell cycle)” value (Cell strain A431; Concentration 8.0 μg/ml) was “Present (Present: The cell cycle stopped at the G2/M phase in not less that 50% of the cells.)” and the “Inhibiting effect (cell cycle)” value (Cell strain A431; Concentration 32.0 μg/ml) was “Present (Present: The cell cycle stopped at the G2/M phase in not less that 50% of the cells.)”.
